In brackets after ≈: the same amount, converted by molar mass.
Experiments:
[1] = system: S. aureus ATCC 19636 (MSSA); assay: Test D in vivo efficacy, mouse peritonitis model of systemic infection; details: mice
[2] = system: S. aureus ATCC 43300 (MRSA); assay: as above; details: mice, p.o.
MSSA = assay: Test A antibacterial assay, broth microdilution MIC; assay type: cell-based; details: Staphylococcus aureus, read-out: MIC MSSA
Method: (§1) Antibacterial activity can be determined as per Clinical and Laboratory Standards Institute (CLSI) guidelines using a broth microdilution assay in which log-phase bacteria are grown at 37° C. in appropriate medium containing two-fold serial dilutions of a compound to yield final concentrations ranging from 256 to 0.06 μg/mL. For determination of minimal inhibitory concentration (MIC) values, bacterial growth is monitored after 24 to 48 hours by measuring optical density at 600 nm.

MRSA = assay: as above; assay type: cell-based; details: Staphylococcus aureus, read-out: MIC MRSA
Method: as §1

## CN1CCC(C(=O)NC(=O)c2c(F)ccc(OCc3nc4cc(Cl)cnc4s3)c2F)CC1 [Example 17]
[1]; i.v., 1x, total dose 0.6 mg/mouse, first dose immediately prior to infection, 24 Hrs
  Survival (%): 0%
[1]; i.v., 1x, total dose 0.6 mg/mouse, first dose immediately prior to infection, 48 Hrs
  Survival (%): 0%
[1]; i.v., 1x, total dose 0.6 mg/mouse, first dose immediately prior to infection, 72 Hrs
  Survival (%): 0%
[1]; i.v., 2x, total dose 1.2 mg/mouse, first dose immediately prior to infection, 24 Hrs
  Survival (%): 0%
[1]; i.v., 2x, total dose 1.2 mg/mouse, first dose immediately prior to infection, 48 Hrs
  Survival (%): 0%
[1]; i.v., 2x, total dose 1.2 mg/mouse, first dose immediately prior to infection, 72 Hrs
  Survival (%): 0%
[1]; i.v., 3x, total dose 1.8 mg/mouse, first dose immediately prior to infection, 24 Hrs
  Survival (%): 33.3%
[1]; i.v., 3x, total dose 1.8 mg/mouse, first dose immediately prior to infection, 48 Hrs
  Survival (%): 33.3%
[1]; i.v., 3x, total dose 1.8 mg/mouse, first dose immediately prior to infection, 72 Hrs
  Survival (%): 33.3%
[1]; i.v., 4x, total dose 2.4 mg/mouse, first dose immediately prior to infection, 24 Hrs
  Survival (%): 83.3%
[1]; i.v., 4x, total dose 2.4 mg/mouse, first dose immediately prior to infection, 48 Hrs
  Survival (%): 83.3%
[1]; i.v., 4x, total dose 2.4 mg/mouse, first dose immediately prior to infection, 72 Hrs
  Survival (%): 83.3%
[1]; p.o., 1x, total dose 0.8 mg/mouse, first dose 5 minutes prior to infection, 24 Hrs
  Survival (%): 0%
[1]; p.o., 1x, total dose 0.8 mg/mouse, first dose 5 minutes prior to infection, 48 Hrs
  Survival (%): 0%
[1]; p.o., 1x, total dose 0.8 mg/mouse, first dose 5 minutes prior to infection, 72 Hrs
  Survival (%): 0%
[1]; p.o., 2x, total dose 1.6 mg/mouse, first dose 5 minutes prior to infection, 24 Hrs
  Survival (%): 0%
[1]; p.o., 2x, total dose 1.6 mg/mouse, first dose 5 minutes prior to infection, 48 Hrs
  Survival (%): 0%
[1]; p.o., 2x, total dose 1.6 mg/mouse, first dose 5 minutes prior to infection, 72 Hrs
  Survival (%): 0%
[1]; p.o., 4x, total dose 3.2 mg/mouse, 24 Hrs
  Survival (%): 83.3%
[1]; p.o., 4x, total dose 3.2 mg/mouse, 48 Hrs
  Survival (%): 83.3%
[1]; p.o., 4x, total dose 3.2 mg/mouse, 72 Hrs
  Survival (%): 83.3%
[1]; p.o., 4x, total dose 3.2 mg/mouse, first dose 5 minutes prior to infection, 24 Hrs
  Survival (%): 100%
[1]; p.o., 4x, total dose 3.2 mg/mouse, first dose 5 minutes prior to infection, 48 Hrs
  Survival (%): 100%
[1]; p.o., 4x, total dose 3.2 mg/mouse, first dose 5 minutes prior to infection, 72 Hrs
  Survival (%): 100%
[2]; 3x, total dose 2.4 mg/mouse, first dose 5 minutes prior to infection, 24 Hrs
  Survival (%): 66.7%
[2]; 3x, total dose 2.4 mg/mouse, first dose 5 minutes prior to infection, 48 Hrs
  Survival (%): 16.7%
[2]; 3x, total dose 2.4 mg/mouse, first dose 5 minutes prior to infection, 72 Hrs
  Survival (%): 16.7%
[2]; 6x, total dose 4.8 mg/mouse, 24 Hrs
  Survival (%): 83.3%
[2]; 6x, total dose 4.8 mg/mouse, 48 Hrs
  Survival (%): 50%
[2]; 6x, total dose 4.8 mg/mouse, 72 Hrs
  Survival (%): 50%
[2]; 6x, total dose 4.8 mg/mouse, first dose 5 minutes prior to infection, 24 Hrs
  Survival (%): 100%
[2]; 6x, total dose 4.8 mg/mouse, first dose 5 minutes prior to infection, 48 Hrs
  Survival (%): 100%
[2]; 6x, total dose 4.8 mg/mouse, first dose 5 minutes prior to infection, 72 Hrs
  Survival (%): 100%
[2]; 6x, total dose 4.8 mg/mouse, first dose 10 minutes post-infection, 24 Hrs
  Survival (%): 100%
[2]; 6x, total dose 4.8 mg/mouse, first dose 10 minutes post-infection, 48 Hrs
  Survival (%): 100%
[2]; 6x, total dose 4.8 mg/mouse, first dose 10 minutes post-infection, 72 Hrs
  Survival (%): 100%
MSSA
  MIC: 2 µg/mL (≈ 4.16 µM)
MRSA
  MIC: 4 µg/mL (≈ 8.32 µM)

## O=C(NC(=O)c1c(F)ccc(OCc2nc3cc(Cl)ccc3s2)c1F)c1c(Cl)cccc1Cl [Example 24]
MSSA
  MIC: > 64 µg/mL
MRSA
  MIC: > 64 µg/mL

## CCC(C)C(=O)NC(=O)c1c(F)ccc(OCc2nc3cc(Cl)ccc3s2)c1F (centres unmarked) [Example 25]
MSSA
  MIC: > 64 µg/mL
MRSA
  MIC: 2 µg/mL (≈ 4.56 µM)

## COC(=O)NC(=O)c1c(F)ccc(OCc2nc3cc(Cl)ccc3s2)c1F [Example 26]
MSSA
  MIC: > 64 µg/mL
MRSA
  MIC: 8 µg/mL (≈ 19.4 µM)

## CN(C)C(=O)NC(=O)c1c(F)ccc(OCc2nc3cc(Cl)ccc3s2)c1F [Example 27]
MSSA
  MIC: > 64 µg/mL
MRSA
  MIC: > 64 µg/mL

## CCOC(=O)NC(=O)c1c(F)ccc(OCc2nc3cc(Cl)ccc3s2)c1F [Example 28]
MSSA
  MIC: > 64 µg/mL
MRSA
  MIC: 8 µg/mL (≈ 18.7 µM)

## COc1cccc(COC(=O)NC(=O)c2c(F)ccc(OCc3nc4cc(Cl)ccc4s3)c2F)c1 [Example 29]
MSSA
  MIC: 8 µg/mL (≈ 15.4 µM)
MRSA
  MIC: 32 µg/mL (≈ 61.7 µM)

## CC(C)OC(=O)NC(=O)c1c(F)ccc(OCc2nc3cc(Cl)ccc3s2)c1F [Example 30]
MSSA
  MIC: > 64 µg/mL
MRSA
  MIC: 2 µg/mL (≈ 4.54 µM)

## O=C(NC(=O)c1c(F)ccc(OCc2nc3cc(Cl)ccc3s2)c1F)OCCF [Example 31]
MSSA
  MIC: > 64 µg/mL
MRSA
  MIC: 4 µg/mL (≈ 8.99 µM)

## O=C(NC(=O)c1c(F)ccc(OCc2nc3cc(Cl)ccc3s2)c1F)Oc1ccccc1 [Example 32, Phenyl(3-((5-chlorobenzo[d]thiazol-2-yl)methoxy)-2,6-difluorobenzoyl)carbamate]
MSSA
  MIC: 4 µg/mL (≈ 8.42 µM)
MRSA
  MIC: 4 µg/mL (≈ 8.42 µM)

## CN1CCN(C(=O)NC(=O)c2c(F)ccc(OCc3nc4cc(Cl)ccc4s3)c2F)CC1 [Example 33]
MSSA
  MIC: > 64 µg/mL
MRSA
  MIC: > 64 µg/mL

## CN1CCC(OC(=O)NC(=O)c2c(F)ccc(OCc3nc4cc(Cl)ccc4s3)c2F)CC1 [Example 34, 1-methylpiperidin-4-yl (3-((5-chlorobenzo[d]thiazol-2-yl)methoxy)-2,6-difluorobenzoyl)carbamate]
MSSA
  MIC: 32 µg/mL (≈ 64.5 µM)
MRSA
  MIC: 4 µg/mL (≈ 8.07 µM)

## CN1CCN(C(=O)NC(=O)c2c(F)ccc(OCc3nc4cc(Cl)cnc4s3)c2F)CC1 [Example 35]
MSSA
  MIC: 0.25 µg/mL (≈ 0.519 µM)
MRSA
  MIC: 2 µg/mL (≈ 4.15 µM)

## CC(=O)NC(=O)c1c(F)ccc(OCc2cccc(-c3ccc(C(C)(C)C)cc3)c2)c1F [Example 36]
MSSA
  MIC: > 64 µg/mL
MRSA
  MIC: > 64 µg/mL

## CC(C)(C)c1cc(C(=O)NC(=O)c2c(F)ccc(OCc3nc4cc(Cl)ccc4s3)c2F)cc(C(C)(C)C)c1 [Example 37]
MSSA
  MIC: > 64 µg/mL
MRSA
  MIC: 8 µg/mL (≈ 14 µM)

## CC(=O)NC(=O)c1cccc(OCc2nc3cc(Cl)ccc3s2)c1 [Example 38]
MSSA
  MIC: > 64 µg/mL
MRSA
  MIC: > 64 µg/mL

## CC(=O)NC(=O)c1c(N2CCN(C)CC2)ccc(OCc2nc3cc(Cl)ccc3s2)c1F [Example 39]
MSSA
  MIC: > 64 µg/mL
MRSA
  MIC: > 64 µg/mL

## CCC(C)C(=O)NC(=O)c1c(F)ccc(OCc2nc3cc(Cl)cnc3s2)c1F (centres unmarked) [Example 40]
MSSA
  MIC: > 64 µg/mL
MRSA
  MIC: 2 µg/mL (≈ 4.55 µM)

## CN1CCC(C(=O)NC(=O)c2c(Cl)ccc(OCc3nc4cc(Cl)cnc4s3)c2F)CC1 [Example 41]
MSSA
  MIC: 4 µg/mL (≈ 8.04 µM)
MRSA
  MIC: 8 µg/mL (≈ 16.1 µM)

## CN1CCC(C(=O)NC(=O)c2c(F)ccc(OC(CO)c3nc(-c4ccc(C(F)(F)F)cc4)c(Br)o3)c2F)CC1 (centres unmarked) [Example 42]
MSSA
  MIC: 1 µg/mL (≈ 1.58 µM)
MRSA
  MIC: 16 µg/mL (≈ 25.3 µM)

## CCC(=O)N(C(=O)CC)C(=O)c1c(F)ccc(OCc2nc3cc(Cl)ccc3s2)c1F [Example 43]
MSSA
  MIC: 64 µg/mL (≈ 137 µM)
MRSA
  MIC: 64 µg/mL (≈ 137 µM)

## CN1CCC(C(=O)NC(=O)c2c(F)ccc(OCc3nc4cc(C(F)(F)F)cnc4s3)c2F)CC1 [Example 44]
[1]; i.v., 1x, total dose 0.9 mg/mouse, 24 Hrs
  Survival (%): 83.3%
[1]; i.v., 1x, total dose 0.9 mg/mouse, 48 Hrs
  Survival (%): 83.3%
[1]; i.v., 1x, total dose 0.9 mg/mouse, 72 Hrs
  Survival (%): 83.3%
[1]; i.v., 2x, total dose 1.8 mg/mouse, 24 Hrs
  Survival (%): 100%
[1]; i.v., 2x, total dose 1.8 mg/mouse, 48 Hrs
  Survival (%): 100%
[1]; i.v., 2x, total dose 1.8 mg/mouse, 72 Hrs
  Survival (%): 100%
[1]; p.o., 1x, total dose 0.8 mg/mouse, 24 Hrs
  Survival (%): 50%
[1]; p.o., 1x, total dose 0.8 mg/mouse, 48 Hrs
  Survival (%): 50%
[1]; p.o., 1x, total dose 0.8 mg/mouse, 72 Hrs
  Survival (%): 50%
[1]; p.o., 2x, total dose 1.6 mg/mouse, 24 Hrs
  Survival (%): 100%
[1]; p.o., 2x, total dose 1.6 mg/mouse, 48 Hrs
  Survival (%): 100%
[1]; p.o., 2x, total dose 1.6 mg/mouse, 72 Hrs
  Survival (%): 100%
[1]; p.o., 3x, total dose 2.4 mg/mouse, 24 Hrs
  Survival (%): 100%
[1]; p.o., 3x, total dose 2.4 mg/mouse, 48 Hrs
  Survival (%): 100%
[1]; p.o., 3x, total dose 2.4 mg/mouse, 72 Hrs
  Survival (%): 100%
[1]; p.o., 4x, total dose 3.2 mg/mouse, n/group 4, 24 Hrs
  Survival (%): 100%
[1]; p.o., 4x, total dose 3.2 mg/mouse, n/group 4, 48 Hrs
  Survival (%): 100%
[1]; p.o., 4x, total dose 3.2 mg/mouse, n/group 4, 72 Hrs
  Survival (%): 100%
MSSA
  MIC: 0.5 µg/mL (≈ 0.972 µM)
MRSA
  MIC: 2 µg/mL (≈ 3.89 µM)

## CN1CCC(C(=O)NC(=O)c2c(F)ccc(OCc3nc(-c4ccc(OC(F)(F)F)cc4)c(Br)o3)c2F)CC1 [Example 46]
MSSA
  MIC: 1 µg/mL (≈ 1.62 µM)
MRSA
  MIC: 4 µg/mL (≈ 6.47 µM)

## CN1CCC(C(=O)NC(=O)c2c(F)ccc(OCc3nc(-c4ccc(OC(F)(F)F)cc4)ns3)c2F)CC1 [Example 47]
MSSA
  MIC: 0.0625 µg/mL (≈ 0.112 µM)
MRSA
  MIC: 1 µg/mL (≈ 1.8 µM)

## CC(C)c1csc(COc2ccc(F)c(C(=O)NC(=O)C3CCN(C)CC3)c2F)n1 [Example 48]
MSSA
  MIC: 8 µg/mL (≈ 18.3 µM)
MRSA
  MIC: 8 µg/mL (≈ 18.3 µM)

## CN1CCC(C(=O)NC(=O)c2c(F)ccc(OCc3nc(-c4ccc(C(F)(F)F)cn4)c(Br)o3)c2F)CC1 [Example 49]
MSSA
  MIC: 2 µg/mL (≈ 3.31 µM)
MRSA
  MIC: 16 µg/mL (≈ 26.5 µM)

## CN1CCC(C(=O)NC(=O)c2c(F)ccc(OCc3nc(-c4ccc(C(F)(F)F)cn4)ns3)c2F)CC1 [Example 50]
MSSA
  MIC: 1 µg/mL (≈ 1.85 µM)
MRSA
  MIC: 4 µg/mL (≈ 7.39 µM)

## CNC(=O)NC(=O)c1c(F)ccc(OCc2nc3cc(Cl)ccc3s2)c1F [Example 51]
MSSA
  MIC: > 64 µg/mL
MRSA
  MIC: > 64 µg/mL

Reference: patent US10071082B2, “Antimicrobial agents” (Rutgers, The State University of New Jersey, priority 2013, dated 2018)
